Test results taken from PubChem BioAssay AID2060602 (Molecular Pharmacology Branch, DTP, NCI, 2025).
Values joined by “and” are separate entries in the source; they are usually repeats but may differ in a detail not shown here. Identical values can stand only once.

Tested on: 648629-189-R-J1-PDC complex spheroids viability
Test: Anticancer human tumor 648629-189-R-J1-PDC patient-derived bladder carcinoma cell line growth inhibition [CLK]
Details: for viability, T/C: stronger effect = lower value
Procedure, shortened: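 Multi-cell-type spheroids combined patient-derived tumor cells with HUVEC endothelial cells and human mesenchymal stem cells. Paired agents were dosed in half-log steps down from about clinical Cmax, or from 10 microM where Cmax was unknown.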

[1] = curve of first compound, second compound 0.0316 µM
[2] = curve of first compound, second compound 0.1 µM
[3] = curve of first compound, second compound 0.316 µM
[4] = curve of first compound, second compound 1 µM
[5] = curve of first compound, second compound 3.16 µM
[6] = curve of first compound, second compound 10 µM
[7] = second compound 0.0316 µM, first compound 0.0316 µM
[8] = second compound 0.0316 µM, first compound 0.1 µM
[9] = second compound 0.0316 µM, first compound 0.316 µM
[10] = second compound 0.0316 µM, first compound 1 µM
[11] = second compound 0.0316 µM, first compound 3.16 µM
[12] = second compound 0.0316 µM, first compound 10 µM
[13] = second compound 0.1 µM, first compound 0.0316 µM
[14] = second compound 0.1 µM, first compound 0.1 µM
[15] = second compound 0.1 µM, first compound 0.316 µM
[16] = second compound 0.1 µM, first compound 1 µM
[17] = second compound 0.1 µM, first compound 3.16 µM
[18] = second compound 0.1 µM, first compound 10 µM
[19] = second compound 0.316 µM, first compound 0.0316 µM
[20] = second compound 0.316 µM, first compound 0.1 µM
[21] = second compound 0.316 µM, first compound 0.316 µM
[22] = second compound 0.316 µM, first compound 1 µM
[23] = second compound 0.316 µM, first compound 3.16 µM
[24] = second compound 0.316 µM, first compound 10 µM
[25] = second compound 1 µM, first compound 0.0316 µM
[26] = second compound 1 µM, first compound 0.1 µM
[27] = second compound 1 µM, first compound 0.316 µM
[28] = second compound 1 µM, first compound 1 µM
[29] = second compound 1 µM, first compound 3.16 µM
[30] = second compound 1 µM, first compound 10 µM
[31] = second compound 3.16 µM, first compound 0.0316 µM
[32] = second compound 3.16 µM, first compound 0.1 µM
[33] = second compound 3.16 µM, first compound 0.316 µM
[34] = second compound 3.16 µM, first compound 1 µM
[35] = second compound 3.16 µM, first compound 3.16 µM
[36] = second compound 3.16 µM, first compound 10 µM
[37] = second compound 10 µM, first compound 0.0316 µM
[38] = second compound 10 µM, first compound 0.1 µM
[39] = second compound 10 µM, first compound 0.316 µM
[40] = second compound 10 µM, first compound 1 µM
[41] = second compound 10 µM, first compound 3.16 µM
[42] = second compound 10 µM, first compound 10 µM
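For viability, T/C in this document: drug exposure lasted seven days before viability readout; 100% = DMSO vehicle control wells.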

For `CC1(C)CCC(CN2CCN(c3ccc(C(=O)NS(=O)(=O)c4ccc(NCC5CCOCC5)c([N+](=O)[O-])c4)c(Oc4cnc5[nH]ccc5c4)c3)CC2)=C(c2ccc(Cl)cc2)C1` + CN1CCN(c2cc(C(=O)Nc3cc4cc(-c5cnn(C)c5)ccc4cn3)ccn2)CC1, the IC50 [1] was over 10000 nM, the IC50 [2] was over 10000 nM and the IC50 [3] was under 31.6 nM. The IC50 [4] was under 31.6 nM, the IC50 [5] was under 31.6 nM and the IC50 [6] was under 31.6 nM. The viability, T/C [7] was 114%, the viability, T/C [8] was 112% and the viability, T/C [9] was 110%. For the same compound, the viability, T/C [10] was 97.4%, the viability, T/C [11] was 86.2% and the viability, T/C [12] was 66.6%. It also gave a viability, T/C [13] of 112%, a viability, T/C [14] of 116% and a viability, T/C [15] of 97.4%. For the same compound, the viability, T/C [16] was 107%, the viability, T/C [17] was 91.8% and the viability, T/C [18] was 56.1%. The viability, T/C [19] was 37%, the viability, T/C [20] was 52% and the viability, T/C [21] was 41.4%. It also gave a viability, T/C [22] of 47.8%, a viability, T/C [23] of 35.7% and a viability, T/C [24] of 24.2%. For the same compound, the viability, T/C [25] was 0.21%, the viability, T/C [26] was 0.41% and the viability, T/C [27] was 0.38%. It also gave a viability, T/C [28] of 0.27%, a viability, T/C [29] of 0.36% and a viability, T/C [30] of 1.01%. For the same compound, the viability, T/C [31] was 0.1%, the viability, T/C [32] was 0.35% and the viability, T/C [33] was 0.14%. It also gave a viability, T/C [34] of 0.13%, a viability, T/C [35] of 0.12% and a viability, T/C [36] of 0.7%. It also gave a viability, T/C [37] of 0.13%, a viability, T/C [38] of 0.17% and a viability, T/C [39] of 0.16%. For the same compound, the viability, T/C [40] was 0.54%, the viability, T/C [41] was 0.17% and the viability, T/C [42] was 0.16%.
Work on `CC(C)CC(NC(=O)C(Cc1ccccc1)NC(=O)c1cnccn1)B(O)O` (stereo not drawn) + CN1CCN(c2cc(C(=O)Nc3cc4cc(-c5cnn(C)c5)ccc4cn3)ccn2)CC1 yielded an IC50 [1] of 4.64 nM, an IC50 [2] of 4.8 nM and an IC50 [3] of under 0.949 nM. It also gave an IC50 [4] of under 0.949 nM, an IC50 [5] of under 0.949 nM and an IC50 [6] of under 0.949 nM. It also gave a viability, T/C (second compound 0.0316 µM, first compound 0.000949 µM) of 116%, a viability, T/C (second compound 0.0316 µM, first compound 0.003 µM) of 79.8% and a viability, T/C (second compound 0.0316 µM, first compound 0.00949 µM) of 0.91%. It also gave a viability, T/C (second compound 0.0316 µM, first compound 0.03 µM) of 0.37%, a viability, T/C (second compound 0.0316 µM, first compound 0.0949 µM) of 0.28% and a viability, T/C (second compound 0.0316 µM, first compound 0.3 µM) of 0.14%. The viability, T/C (second compound 0.1 µM, first compound 0.000949 µM) was 94.9%, the viability, T/C (second compound 0.1 µM, first compound 0.003 µM) was 82.8% and the viability, T/C (second compound 0.1 µM, first compound 0.00949 µM) was 2.63%. It also gave a viability, T/C (second compound 0.1 µM, first compound 0.03 µM) of 0.49%, a viability, T/C (second compound 0.1 µM, first compound 0.0949 µM) of 0.17% and a viability, T/C (second compound 0.1 µM, first compound 0.3 µM) of 0.16%. The viability, T/C (second compound 0.316 µM, first compound 0.000949 µM) was 41.5%, the viability, T/C (second compound 0.316 µM, first compound 0.003 µM) was 18.5% and the viability, T/C (second compound 0.316 µM, first compound 0.00949 µM) was 0.32%. The viability, T/C (second compound 0.316 µM, first compound 0.03 µM) was 0.16%, the viability, T/C (second compound 0.316 µM, first compound 0.0949 µM) was 0.15% and the viability, T/C (second compound 0.316 µM, first compound 0.3 µM) was 0.14%. It also gave a viability, T/C (second compound 1 µM, first compound 0.000949 µM) of 0.66%, a viability, T/C (second compound 1 µM, first compound 0.003 µM) of 0.93% and a viability, T/C (second compound 1 µM, first compound 0.00949 µM) of 0.16%. The viability, T/C (second compound 1 µM, first compound 0.03 µM) was 0.1%, the viability, T/C (second compound 1 µM, first compound 0.0949 µM) was 0.17% and the viability, T/C (second compound 1 µM, first compound 0.3 µM) was 0.8%. The viability, T/C (second compound 3.16 µM, first compound 0.000949 µM) was 0.08%, the viability, T/C (second compound 3.16 µM, first compound 0.003 µM) was 2.07% and the viability, T/C (second compound 3.16 µM, first compound 0.00949 µM) was 0.1%. For the same compound, the viability, T/C (second compound 3.16 µM, first compound 0.03 µM) was 0.08%, the viability, T/C (second compound 3.16 µM, first compound 0.0949 µM) was 1.36% and the viability, T/C (second compound 3.16 µM, first compound 0.3 µM) was 1.67%. The viability, T/C (second compound 10 µM, first compound 0.000949 µM) was 0.06%, the viability, T/C (second compound 10 µM, first compound 0.003 µM) was 1.03% and the viability, T/C (second compound 10 µM, first compound 0.00949 µM) was 0.12%. The viability, T/C (second compound 10 µM, first compound 0.03 µM) was 0.11%, the viability, T/C (second compound 10 µM, first compound 0.0949 µM) was 2.27% and the viability, T/C (second compound 10 µM, first compound 0.3 µM) was 1.33%.
`C#Cc1c(F)ccc2cc(O)cc(-c3ncc4c(N5CC6CCC(C5)N6)nc(OCC56CCCN5CC(F)C6)nc4c3F)c12` (stereo not drawn) + CNC(=O)c1ccc(Nc2nc(OC3CCCC3)c3c(-c4ccc5nc(C)oc5c4)c[nH]c3n2)c(OC)c1 gave an IC50 [1] of over 10000 nM, an IC50 [2] of 8430 nM and an IC50 [3] of under 31.6 nM. It also gave an IC50 [4] of under 31.6 nM, an IC50 [5] of under 31.6 nM and an IC50 [6] of under 31.6 nM. For the same compound, the viability, T/C [7] was 120%, the viability, T/C [8] was 88.4% and the viability, T/C [9] was 108%. For the same compound, the viability, T/C [10] was 105%, the viability, T/C [11] was 100% and the viability, T/C [12] was 91.4%. The viability, T/C [13] was 83.2%, the viability, T/C [14] was 76.9% and the viability, T/C [15] was 84.1%. For the same compound, the viability, T/C [16] was 79.4%, the viability, T/C [17] was 61.8% and the viability, T/C [18] was 48%. For the same compound, the viability, T/C [19] was 28.1%, the viability, T/C [20] was 25.4% and the viability, T/C [21] was 25.1%. For the same compound, the viability, T/C [22] was 23%, the viability, T/C [23] was 19.3% and the viability, T/C [24] was 22%. For the same compound, the viability, T/C [25] was 18.7%, the viability, T/C [26] was 20.2% and the viability, T/C [27] was 15.5%. For the same compound, the viability, T/C [28] was 18.6%, the viability, T/C [29] was 18.2% and the viability, T/C [30] was 19.4%. The viability, T/C [31] was 17.2%, the viability, T/C [32] was 17.6% and the viability, T/C [33] was 15.4%. It also gave a viability, T/C [34] of 16.9%, a viability, T/C [35] of 17.6% and a viability, T/C [36] of 17.9%. It also gave a viability, T/C [37] of 20.1%, a viability, T/C [38] of 18.5% and a viability, T/C [39] of 18%. For the same compound, the viability, T/C [40] was 17%, the viability, T/C [41] was 21.5% and the viability, T/C [42] was 16.6%.
With `CC(Nc1ccc2c(c1)OCCn1cc(N3C(=O)OCC3C(F)F)nc1-2)C(N)=O` (stereo not drawn) the viability, T/C (compound 0.0316 µM) was 106% and 92.8%, the viability, T/C (compound 0.1 µM) was 99.8% and 111% and the viability, T/C (compound 0.316 µM) was 89% and 83.4%. The viability, T/C (compound 1 µM) was 82.8% and 76.1%, the viability, T/C (compound 3.16 µM) was 54.4% and 56.5% and the viability, T/C (compound 10 µM) was 38.2% and 46.5%. For the same compound, the IC50 (curve of compound) was 4860 nM and 6820 nM.
